Measurements as given in ChEMBL document CHEMBL1201862, “PubChem BioAssay data set” (2004).
The source made the active and inactive calls.

Experiments:
[1] = target: T1, Aryl hydrocarbon receptor (Homo sapiens, UniProt P35869); experiment: Luminescence-based cell-based high throughput dose response assay for activators of the Aryl Hydrocarbon Receptor (AHR). [Related pubchem assays: 2796 (Primary screen (AHR activators in singlicate)), 2845 (Confirmation screen (AHR activators in triplicate)), 434939 (Counterscreen (PXR activators in triplicate)), 2804 (Summary (AHR activators))]; type: ADME
T1 sequence (P35869 whole entry): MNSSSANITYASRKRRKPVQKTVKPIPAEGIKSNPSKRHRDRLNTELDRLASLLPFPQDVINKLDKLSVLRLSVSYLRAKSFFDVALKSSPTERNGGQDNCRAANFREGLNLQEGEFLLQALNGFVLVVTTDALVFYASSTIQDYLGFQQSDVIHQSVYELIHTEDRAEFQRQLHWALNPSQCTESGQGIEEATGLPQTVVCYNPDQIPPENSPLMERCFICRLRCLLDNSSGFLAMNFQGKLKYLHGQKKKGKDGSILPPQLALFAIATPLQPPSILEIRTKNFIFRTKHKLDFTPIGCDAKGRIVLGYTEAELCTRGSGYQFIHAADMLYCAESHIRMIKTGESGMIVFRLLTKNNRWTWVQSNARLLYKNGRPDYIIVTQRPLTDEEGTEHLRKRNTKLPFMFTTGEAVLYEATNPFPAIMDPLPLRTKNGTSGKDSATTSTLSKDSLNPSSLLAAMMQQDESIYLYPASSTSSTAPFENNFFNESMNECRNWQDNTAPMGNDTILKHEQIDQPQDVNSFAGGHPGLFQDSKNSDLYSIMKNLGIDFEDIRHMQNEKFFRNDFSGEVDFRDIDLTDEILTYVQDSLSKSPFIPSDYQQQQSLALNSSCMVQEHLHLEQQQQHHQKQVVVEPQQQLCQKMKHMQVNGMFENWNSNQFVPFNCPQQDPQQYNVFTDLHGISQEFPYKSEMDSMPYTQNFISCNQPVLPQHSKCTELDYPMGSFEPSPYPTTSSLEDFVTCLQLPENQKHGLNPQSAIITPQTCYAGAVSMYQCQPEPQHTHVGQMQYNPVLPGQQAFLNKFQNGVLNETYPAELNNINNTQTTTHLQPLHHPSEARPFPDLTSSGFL

[2] = target: T2, CAAX prenyl protease 2 (Saccharomyces cerevisiae S288c, UniProt Q03530); type: biochemical
T2 sequence (Q03530 whole entry): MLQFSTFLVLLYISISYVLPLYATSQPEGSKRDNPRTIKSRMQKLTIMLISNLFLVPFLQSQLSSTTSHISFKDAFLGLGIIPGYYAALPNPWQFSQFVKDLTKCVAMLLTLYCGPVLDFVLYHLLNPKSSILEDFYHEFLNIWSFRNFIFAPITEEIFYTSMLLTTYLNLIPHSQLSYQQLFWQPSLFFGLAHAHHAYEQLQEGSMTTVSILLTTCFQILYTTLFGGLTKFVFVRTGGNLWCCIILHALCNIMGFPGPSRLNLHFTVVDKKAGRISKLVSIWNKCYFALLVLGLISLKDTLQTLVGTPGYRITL

[3] = NIH-3T3 fibroblast cytotoxicity, dose response, cytotoxicity control, cell-based, fluorescence, Alamar Blue, secondary assay (AID 2327); type: functional;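 further: NIH-3T3 mouse fibroblasts cultured with fluconazole at 8 µg/mL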
[4] = fluconazole-exposed Candida albicans growth modulators – fluorescence, retest, confirmation (AID 2467); type: functional, cell-based
[5] = target: T3, X-box-binding protein 1 (Homo sapiens, UniProt P17861); type: functional, Cricetulus griseus;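 further: confirmatory dose-response counter-screen serving a CHOP assay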
T3 sequence (P17861 whole entry): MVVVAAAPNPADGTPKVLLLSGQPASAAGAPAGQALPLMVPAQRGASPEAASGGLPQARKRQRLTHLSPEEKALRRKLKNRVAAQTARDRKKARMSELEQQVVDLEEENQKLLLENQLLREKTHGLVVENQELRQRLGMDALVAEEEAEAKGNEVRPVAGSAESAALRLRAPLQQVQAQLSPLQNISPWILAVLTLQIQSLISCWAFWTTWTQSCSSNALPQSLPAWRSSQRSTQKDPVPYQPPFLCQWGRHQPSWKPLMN

[6] = target: Luciferin 4-monooxygenase (Photinus pyralis, UniProt P08659); experiment: inhibition of purified Photinus pyralis luciferase – biochemical, luminescence, dose response (AID 1891)
[7] = Luminescence Cell-Based Dose Confirmation HTS to Identify Inhibitors of Platelet Dense Granule Release. [Related pubchem assays: 1663 (Primary HTS), 1678 (Summary of Project)]; type: functional
[8] = target: T4, Microphthalmia-associated transcription factor (Homo sapiens, UniProt O75030); experiment: reducers of TRPM1 reporter luminescence, concentration series – cell-based, SK-MEL-5, cherry-picked, set 3, MITF inhibitor project, dose response (AID 493073); type: functional;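 further: SK-MEL-5 melanoma cells with luciferase driven by the MITF target TRPM1 promoter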
T4 sequence (O75030 whole entry): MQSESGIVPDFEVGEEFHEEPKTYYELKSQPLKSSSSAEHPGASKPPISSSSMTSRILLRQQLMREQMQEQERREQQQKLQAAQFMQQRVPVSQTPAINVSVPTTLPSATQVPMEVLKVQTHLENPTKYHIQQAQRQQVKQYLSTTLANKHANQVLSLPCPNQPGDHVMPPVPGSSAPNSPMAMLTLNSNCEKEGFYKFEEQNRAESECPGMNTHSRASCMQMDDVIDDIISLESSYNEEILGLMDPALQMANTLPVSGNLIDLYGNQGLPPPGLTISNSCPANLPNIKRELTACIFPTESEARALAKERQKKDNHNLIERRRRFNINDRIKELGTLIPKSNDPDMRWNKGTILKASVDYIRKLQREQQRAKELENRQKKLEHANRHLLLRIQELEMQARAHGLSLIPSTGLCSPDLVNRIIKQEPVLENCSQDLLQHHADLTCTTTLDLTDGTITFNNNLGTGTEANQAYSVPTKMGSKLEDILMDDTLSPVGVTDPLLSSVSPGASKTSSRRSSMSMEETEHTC

[9] = test system: A-375; experiment: MITF: Counter assay: A375 proliferation Measured in Cell-Based System Using Plate Reader - 2084-03_Inhibitor_Dose_DryPowder_Activity. [Related pubchem assays (depositor defined):AID488944]; type: functional; conditions: Homo sapiens
[10] = reduction of Shn3 3'UTR-driven luciferase in osteoblasts – cell-based, Clone20 osteoblasts, firefly luciferase, cherry-picked, dose response (AID 624132); type: functional;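 further: firefly luciferase luminescence from reporter carrying the Shn3 3'UTR in osteoblasts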
[11] = loss of viability in HepG2 cells – cell-based, CellTiter-Glo, cherry-picked, cytotoxicity control for Shn3 inhibitor project, dose response (AID 624134); type: functional
[12] = non-specific 3'UTR reporter inhibition in Clone20-Shn3RL – cell-based, Renilla luciferase, cherry-picked, counter-screen for Shn3 inhibitor project, dose response (AID 624133); type: functional
[13] = test system: Escherichia coli; experiment: microbe, parasite or virus in culture
[14] = target: T5, Short transient receptor potential channel 4 (Mus musculus, UniProt Q9QUQ5); experiment: calcium entry via TRPC4 opening agents – cell-based, HEK293 TRPC4/mu-opioid, Fluo-4 calcium, dose response (AID 434937); type: functional
T5 sequence (Q9QUQ5 whole entry): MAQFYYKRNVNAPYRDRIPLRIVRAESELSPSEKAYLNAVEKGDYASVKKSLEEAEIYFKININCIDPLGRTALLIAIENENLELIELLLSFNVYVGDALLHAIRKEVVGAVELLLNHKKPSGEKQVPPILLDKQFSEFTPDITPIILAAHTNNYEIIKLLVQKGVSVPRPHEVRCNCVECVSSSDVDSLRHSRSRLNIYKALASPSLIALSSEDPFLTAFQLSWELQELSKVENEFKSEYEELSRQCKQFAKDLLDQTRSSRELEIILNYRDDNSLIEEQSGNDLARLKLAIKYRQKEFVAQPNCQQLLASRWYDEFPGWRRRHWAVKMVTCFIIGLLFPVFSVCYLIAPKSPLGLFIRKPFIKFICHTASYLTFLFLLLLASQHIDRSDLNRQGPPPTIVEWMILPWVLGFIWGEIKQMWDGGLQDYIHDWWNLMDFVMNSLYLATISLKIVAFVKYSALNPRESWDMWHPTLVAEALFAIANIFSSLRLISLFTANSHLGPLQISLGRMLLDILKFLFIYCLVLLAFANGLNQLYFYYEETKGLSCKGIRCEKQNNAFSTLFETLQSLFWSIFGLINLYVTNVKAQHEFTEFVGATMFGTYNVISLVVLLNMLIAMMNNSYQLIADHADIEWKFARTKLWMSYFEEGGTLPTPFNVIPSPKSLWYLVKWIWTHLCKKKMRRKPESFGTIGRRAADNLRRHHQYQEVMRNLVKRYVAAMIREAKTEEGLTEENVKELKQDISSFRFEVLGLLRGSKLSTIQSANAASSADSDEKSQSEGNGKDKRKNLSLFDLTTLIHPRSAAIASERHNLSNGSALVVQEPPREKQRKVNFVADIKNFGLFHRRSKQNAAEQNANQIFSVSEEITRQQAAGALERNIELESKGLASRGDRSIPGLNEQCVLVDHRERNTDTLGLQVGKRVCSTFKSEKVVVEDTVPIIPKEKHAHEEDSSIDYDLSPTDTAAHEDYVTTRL

[15] = cells; type: functional, cell-based
[16] = target: T6, Heat shock factor protein 1 (Mus musculus, UniProt P38532); experiment: decrease of HSF1-responsive luciferase luminescence – cell-based, NIH3T3, dose retest, confirmation (AID 2382); type: functional;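 further: NIH3T3 fibroblasts with HSF1-driven luciferase reporter stressed by proteasome inhibitor MG132; luminescence from HSF1-driven luciferase expression after 8 hours of MG132 stress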
T6 sequence (P38532 whole entry): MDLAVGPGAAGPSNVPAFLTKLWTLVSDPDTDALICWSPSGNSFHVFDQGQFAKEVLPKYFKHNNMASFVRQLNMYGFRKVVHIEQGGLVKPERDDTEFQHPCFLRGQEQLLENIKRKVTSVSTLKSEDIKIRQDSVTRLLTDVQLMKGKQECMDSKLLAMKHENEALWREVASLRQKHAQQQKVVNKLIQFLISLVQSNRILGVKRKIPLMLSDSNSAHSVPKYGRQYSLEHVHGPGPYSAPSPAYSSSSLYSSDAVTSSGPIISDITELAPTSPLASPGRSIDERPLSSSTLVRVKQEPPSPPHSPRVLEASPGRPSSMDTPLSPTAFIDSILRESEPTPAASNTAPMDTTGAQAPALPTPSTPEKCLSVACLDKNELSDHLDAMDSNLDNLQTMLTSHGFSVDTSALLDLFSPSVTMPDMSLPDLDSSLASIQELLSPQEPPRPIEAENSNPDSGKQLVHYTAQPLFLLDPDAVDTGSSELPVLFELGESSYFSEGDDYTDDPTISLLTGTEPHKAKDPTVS

[17] = cells; type: functional, cell-based; remark: listed apart in the source
[18] = HEK-293T viability loss after treatment – luminescence, T-cell screen hits, cytotoxicity control for TCR NF-kB inhibitor project, dose response (AID 489026); type: functional, cell-based;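 further: cells exposed to compound about 14 hours before the viability readout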
[19] = target: Mitogen-activated protein kinase 10 (Homo sapiens, UniProt P53779); experiment: Dose response biochemical screening assay for inhibitors of c-Jun N-Terminal Kinase 3 (JNK3). [Related pubchem assays: 746 ]
[20] = target: Intestinal-type alkaline phosphatase (Homo sapiens, UniProt P09923); experiment: Dose Response confirmation of uHTS hits from a small molecule inhibitors of human intestinal alkaline phosphatase via a luminescent assay. [Related pubchem assays (depositor defined):AID2544, AID2574]; type: functional
[21] = target: T5, Short transient receptor potential channel 4; experiment: block of DAMGO-driven TRPC4 calcium entry – cell-based, HEK293 TRPC4/mu-opioid, Fluo-4 calcium, dose response (AID 434942); type: functional;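 further: potency of inhibitors blocking the TRPC4 calcium response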

Sequence of Intestinal-type alkaline phosphatase (P09923 whole entry): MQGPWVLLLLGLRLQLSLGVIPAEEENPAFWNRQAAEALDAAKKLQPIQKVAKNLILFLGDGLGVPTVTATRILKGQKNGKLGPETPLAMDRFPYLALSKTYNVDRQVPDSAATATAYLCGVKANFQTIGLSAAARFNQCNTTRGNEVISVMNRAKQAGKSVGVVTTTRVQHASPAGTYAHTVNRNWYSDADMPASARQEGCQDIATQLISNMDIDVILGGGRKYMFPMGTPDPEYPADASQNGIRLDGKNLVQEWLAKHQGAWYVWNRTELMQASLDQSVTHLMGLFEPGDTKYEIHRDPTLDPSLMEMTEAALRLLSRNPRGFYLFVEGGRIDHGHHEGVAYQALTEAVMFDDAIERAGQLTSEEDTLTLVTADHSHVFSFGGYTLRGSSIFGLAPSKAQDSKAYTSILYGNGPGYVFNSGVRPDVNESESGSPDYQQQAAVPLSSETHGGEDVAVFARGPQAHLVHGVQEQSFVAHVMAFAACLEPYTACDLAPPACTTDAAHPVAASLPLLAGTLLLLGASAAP
Sequence of Luciferin 4-monooxygenase (P08659 whole entry): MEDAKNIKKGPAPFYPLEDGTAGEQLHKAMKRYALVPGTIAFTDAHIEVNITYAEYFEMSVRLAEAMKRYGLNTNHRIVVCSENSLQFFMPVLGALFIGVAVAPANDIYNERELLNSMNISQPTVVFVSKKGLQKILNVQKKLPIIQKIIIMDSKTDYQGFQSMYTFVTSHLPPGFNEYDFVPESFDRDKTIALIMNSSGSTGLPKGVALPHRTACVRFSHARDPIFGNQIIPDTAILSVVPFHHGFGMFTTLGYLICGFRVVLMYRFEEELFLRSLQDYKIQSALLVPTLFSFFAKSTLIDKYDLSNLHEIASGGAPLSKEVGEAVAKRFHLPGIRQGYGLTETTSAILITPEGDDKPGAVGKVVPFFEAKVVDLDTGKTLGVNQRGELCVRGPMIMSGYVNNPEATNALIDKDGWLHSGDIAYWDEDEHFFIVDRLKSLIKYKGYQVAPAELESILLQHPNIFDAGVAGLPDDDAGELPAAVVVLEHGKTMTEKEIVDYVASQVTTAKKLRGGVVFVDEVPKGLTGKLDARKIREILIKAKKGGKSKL
Sequence of Mitogen-activated protein kinase 10 (P53779 whole entry): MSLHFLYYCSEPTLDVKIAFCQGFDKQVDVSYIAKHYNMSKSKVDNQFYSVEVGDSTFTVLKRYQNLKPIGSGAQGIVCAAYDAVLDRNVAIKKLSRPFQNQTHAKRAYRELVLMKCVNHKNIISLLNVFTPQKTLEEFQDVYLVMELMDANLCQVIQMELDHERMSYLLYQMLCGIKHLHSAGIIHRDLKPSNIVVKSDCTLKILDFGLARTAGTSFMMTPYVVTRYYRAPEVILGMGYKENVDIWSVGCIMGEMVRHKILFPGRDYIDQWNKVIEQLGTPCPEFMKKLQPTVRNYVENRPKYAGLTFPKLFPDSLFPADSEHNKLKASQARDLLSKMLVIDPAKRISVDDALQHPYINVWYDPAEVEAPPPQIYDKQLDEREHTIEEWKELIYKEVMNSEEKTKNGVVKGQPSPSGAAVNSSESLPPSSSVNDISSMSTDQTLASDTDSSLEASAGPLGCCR

SMILES: COc1ccc(-c2oc3ccc(N4CCOCC4)cc3c2C#Cc2ccc(N)cc2)cc1
- EC50 [1]: 5.72 µM (active)
- AC50 [2]: 5.02 µM (active)

SMILES: C=CCSc1nc(-c2ccc(OCCCC)cc2)n[nH]1
- EC50 [3]: > 150 µM (inactive)
- EC50 [4]: > 38 µM (not active)
- Absolute IC50 (XBP1) [5]: < 10 µM

SMILES: O=C(/C=C/Nc1ccccc1Br)c1ccccn1
- EC50 [6]: 1.34 µM (active)
- EC50 [7]: 4.02 µM (active)
- AC50 [8]: 0.899 µM (active)
- AC50 [9]: 27.6 µM (active)
- AC50 [10]: 1.8 µM (active)
- AC50 [11]: 47.7 µM (active)
- AC50 [12]: 30.4 µM (active)
- AC50 [13]: > 150 µM (inactive)

SMILES: Fc1ccc(NC(S)=NCCc2ccccn2)cc1
- EC50 [14]: 2.11 µM (active)

SMILES: COC(=O)[C@]12OC[C@]34C([C@@H](O)[C@@H]1O)[C@]1(C)CC(=O)C(O)=C(C)[C@@H]1C[C@H]3OC(=O)[C@H](O)[C@@H]24 (stereo partly specified)
- EC50 [15]: > 350 µM (not active)
- EC50 [16]: 1.01 µM (active)
- EC50 [17]: > 350 µM (not active)
- IC50 [18]: > 80 µM (inactive)

SMILES: N#C/C(=C(\O)c1ccco1)c1ccccn1
- IC50 [19]: 51.9 µM (not active)
- IC50 [20]: > 100 µM (inactive)

SMILES: Cn1c(C(=O)N2CCC(C(N)=O)CC2)cc2cc(Cl)ccc21
- EC50 [1]: 0.91 µM (active)

SMILES: O=C1CC(c2cc(F)ccc2F)c2cc3c(cc2N1)CCC3 (stereo unspecified)
- IC50 [18]: > 80 µM (inactive)

SMILES: COc1ccc(NC(=O)CCN2CCN(S(=O)(=O)c3cc(Cl)ccc3OC)CC2)cc1
- IC50 [20]: > 100 µM (inactive)

SMILES: CC(C)c1ccccc1NC(=O)Cn1c(/C=C/c2ccccc2)nc2ccccc21
- Absolute IC50 (XBP1) [5]: 10 µM

SMILES: CC(C)c1ccc(C2C3CSCC=C3C(C#N)=C(N)C2(C#N)C#N)cc1 (stereo unspecified)
- Absolute IC50 (XBP1) [5]: 10 µM

SMILES: Cc1cc(NCc2ccccc2)nc2ccccc12
- EC50 [21]: 3.35 µM (active)
- EC50 [14]: 8.41 µM (active)

SMILES: Cc1ccc(NS(=O)(=O)c2ccc(C(=O)NC3CCN(Cc4ccccc4)CC3)cc2)cc1
- IC50 [18]: 76.2 µM (inactive)
- AC50 [10]: 4.69 µM (active)
- AC50 [11]: 14.8 µM (active)
- AC50 [12]: 12.9 µM (active)
